# Assay results from ChEMBL document CHEMBL3217615, “Novel 3,5-bis(arylidiene)-4-piperidone based monocarbonyl analogs of curcumin: anticancer activity evaluation and mode of action study” (2014).
# Tests used:
# Format in all cases: functional
# MDA-MB-468 = assay: Growth inhibition of human MDA-MB-468 cells after 48 hrs by sulforhodamine B assay; conditions: MDA-MB-468, 48 h
# T47D = assay: Growth inhibition of human T47D cells after 48 hrs by sulforhodamine B assay
# [1] = Growth inhibition of human UACC62 cells assessed as cell growth at 10^-6 M after 48 hrs by sulforhodamine B assay; conditions: UACC-62, 48 h, read-out: Activity
# [2] = Growth inhibition of human LOXIMVI cells assessed as cell growth at 10^-6 M after 48 hrs by sulforhodamine B assay; conditions: LOX IMVI, read-out: Activity
# COLO 205 = assay: Growth inhibition of human COLO205 cells assessed as cell growth at 10^-6 M after 48 hrs by sulforhodamine B assay; conditions: COLO 205, 48 h, read-out: Activity
# [3] = Growth inhibition of human OVCAR8 cells assessed as cell growth at 10^-6 M after 48 hrs by sulforhodamine B assay; conditions: OVCAR-8, 48 h, read-out: Activity
# Malme-3M = assay: Growth inhibition of human MALME-3M cells assessed as cell growth at 10^-4 M after 48 hrs by sulforhodamine B assay; conditions: read-out: Activity
# SW-620 = assay: Growth inhibition of human SW620 cells assessed as cell growth at 10^-4 M after 48 hrs by sulforhodamine B assay; conditions: SW-620, 48 h, read-out: Activity
# HT-29 = assay: Growth inhibition of human HT-29 cells assessed as cell growth at 10^-4 M after 48 hrs by sulforhodamine B assay; conditions: HT-29, 48 h, read-out: Activity
# RPMI-8226 = assay: Growth inhibition of human RPMI8226 cells assessed as cell growth at 10^-4 M after 48 hrs by sulforhodamine B assay; conditions: RPMI-8226, 48 h, read-out: Activity
# KM12 = assay: Growth inhibition of human KM12 cells assessed as cell growth at 10^-8 M after 48 hrs by sulforhodamine B assay; conditions: KM12, 48 h
# HCT-116 = assay: Growth inhibition of human HCT116 cells assessed as cell growth at 10^-8 M after 48 hrs by sulforhodamine B assay; conditions: HCT-116, 48 h
# NCI-H460 = assay: Growth inhibition of human NCI-H460 cells assessed as cell growth at 10^-8 M after 48 hrs by sulforhodamine B assay; conditions: NCI-H460, 48 h
# [4] = Growth inhibition of human MOLT4 cells assessed as cell growth at 10^-8 M after 48 hrs by sulforhodamine B assay; conditions: MOLT-4, 48 h
# CCRF-CEM [5] = assay: Growth inhibition of human CCRF-CEM cells assessed as cell growth at 10^-8 M after 48 hrs by sulforhodamine B assay
# MDA-MB-231 = assay: Growth inhibition of human MDA-MB-231 cells after 48 hrs by sulforhodamine B assay; conditions: MDA-MB-231, 48 h
# [6] = Growth inhibition of human OVCAR5 cells after 48 hrs by sulforhodamine B assay; conditions: OVCAR-5, 48 h
# SNB-19 [7] = assay: Growth inhibition of human SNB19 cells after 48 hrs by sulforhodamine B assay; conditions: SNB-19, 48 h
# [8] = Growth inhibition of human HOP92 cells after 48 hrs by sulforhodamine B assay; conditions: HOP-92, 48 h
# CCRF-CEM [9] = assay: Growth inhibition of human CCRF-CEM cells after 48 hrs by sulforhodamine B assay
# MCF7 [10] = assay: Growth inhibition of human MCF7 cells assessed as cell growth at 10^-4 M after 48 hrs by sulforhodamine B assay; conditions: MCF7, 48 h, read-out: Activity
# SN12C = assay: Growth inhibition of human SN12C cells assessed as cell growth at 10^-4 M after 48 hrs by sulforhodamine B assay; conditions: read-out: Activity
# IGROV-1 = assay: Growth inhibition of human IGROV1 cells assessed as cell growth at 10^-7 M after 48 hrs by sulforhodamine B assay; conditions: IGROV-1, 48 h, read-out: Activity
# [11] = Growth inhibition of human LOXIMVI cells assessed as cell growth at 10^-7 M after 48 hrs by sulforhodamine B assay; conditions: LOX IMVI, read-out: Activity
# SNB-19 [12] = assay: Growth inhibition of human SNB19 cells assessed as cell growth at 10^-7 M after 48 hrs by sulforhodamine B assay; conditions: SNB-19, 48 h, read-out: Activity
# NCI-H522 = assay: Growth inhibition of human NCI-H522 cells assessed as cell growth at 10^-7 M after 48 hrs by sulforhodamine B assay; conditions: NCI-H522, 48 h, read-out: Activity
# [13] = Growth inhibition of human HOP92 cells assessed as cell growth at 10^-7 M after 48 hrs by sulforhodamine B assay; conditions: HOP-92, 48 h, read-out: Activity
# K562 = assay: Growth inhibition of human K562 cells assessed as cell growth at 10^-7 M after 48 hrs by sulforhodamine B assay; conditions: K562, 48 h, read-out: Activity
# MCF7 [14] = assay: Growth inhibition of human MCF7 cells assessed as cell growth at 10^-8 M after 48 hrs by sulforhodamine B assay; conditions: MCF7, 48 h
# A498 = assay: Growth inhibition of human A498 cells assessed as cell growth at 10^-8 M after 48 hrs by sulforhodamine B assay; conditions: A498, 48 h
# 786-0 = assay: Growth inhibition of human 786-0 cells assessed as cell growth at 10^-8 M after 48 hrs by sulforhodamine B assay; conditions: 786-0, 48 h
# [15] = Growth inhibition of human OVCAR8 cells assessed as cell growth at 10^-8 M after 48 hrs by sulforhodamine B assay; conditions: OVCAR-8, 48 h
# [16] = read-out: LC50 (the source's name)
# [17] = read-out: pLC50 (the source's name) (converted)
structure (smiles),measurement,setting,value
O=C1/C(=C/c2ccc(Cl)cc2Cl)CN(S(=O)(=O)c2ccccc2)C/C1=C\c1ccc(Cl)cc1Cl,GI50,MDA-MB-468,1.13 µM
same,TGI,MDA-MB-468,3.89 µM
same,CC50,MDA-MB-468; [16],> 100 µM
same,GI50,T47D,1.28 µM
same,TGI,T47D,100 µM
same,CC50,T47D; [16],> 100 µM
same,growth at 1 µM,[1],45%
same,growth at 1 µM,[2],-37%
same,growth at 1 µM,COLO 205,16%
same,growth at 1 µM,[3],-2%
same,growth at 100 µM,Malme-3M,22%
same,growth at 100 µM,SW-620,-27%
same,growth at 100 µM,HT-29,-16%
same,growth at 100 µM,RPMI-8226,-35%
same,GI50,KM12,0.257 µM
same,LC50,KM12,25.7 µM
same,growth at 0.01 µM,KM12; read-out: Activity,100%
same,TGI,KM12; read-out: pTGI (converted),0.603 µM
same,GI50,HCT-116,0.2 µM
same,LC50,HCT-116,0.912 µM
same,growth at 0.01 µM,HCT-116; read-out: Activity,99%
same,TGI,HCT-116; read-out: pTGI (converted),0.427 µM
same,GI50,NCI-H460,0.209 µM
same,LC50,NCI-H460,0.955 µM
same,growth at 0.01 µM,NCI-H460; read-out: Activity,103%
same,TGI,NCI-H460; read-out: pTGI (converted),0.447 µM
same,GI50,[4],0.589 µM
same,growth at 0.01 µM,[4]; read-out: Activity,104%
same,CC50,[4]; [17],> 100 µM
same,TGI,[4]; read-out: pTGI (converted),9.12 µM
same,GI50,CCRF-CEM [5],0.288 µM
same,growth at 0.01 µM,CCRF-CEM [5]; read-out: Activity,98%
same,CC50,CCRF-CEM [5]; [17],> 100 µM
same,TGI,CCRF-CEM [5]; read-out: pTGI (converted),1 µM
same,GI50,MDA-MB-231,0.466 µM
same,TGI,MDA-MB-231,2.16 µM
same,GI50,[6],2.13 µM
same,TGI,[6],7.43 µM
same,CC50,[6]; [16],> 100 µM
same,GI50,SNB-19 [7],0.313 µM
same,TGI,SNB-19 [7],2.88 µM
same,CC50,SNB-19 [7]; [16],> 100 µM
same,GI50,[8],1.7 µM
same,TGI,[8],5.55 µM
same,CC50,[8]; [16],> 100 µM
same,GI50,CCRF-CEM [9],0.286 µM
same,TGI,CCRF-CEM [9],0.994 µM
same,CC50,CCRF-CEM [9]; [16],> 100 µM
same,growth at 100 µM,MCF7 [10],9%
same,growth at 100 µM,SN12C,-44%
same,growth at 0.1 µM,IGROV-1,130%
same,growth at 0.1 µM,[11],89%
same,growth at 0.1 µM,SNB-19 [12],89%
same,growth at 0.1 µM,NCI-H522,97%
same,growth at 0.1 µM,[13],77%
same,growth at 0.1 µM,K562,99%
same,GI50,MCF7 [14],0.302 µM
same,LC50,MCF7 [14],> 100 µM
same,growth at 0.01 µM,MCF7 [14]; read-out: Activity,96%
same,TGI,MCF7 [14]; read-out: pTGI (converted),100 µM
same,GI50,A498,0.724 µM
same,LC50,A498,> 100 µM
same,growth at 0.01 µM,A498; read-out: Activity,67%
same,TGI,A498; read-out: pTGI (converted),4.37 µM
same,GI50,786-0,0.24 µM
same,LC50,786-0,1.7 µM
same,growth at 0.01 µM,786-0; read-out: Activity,101%
same,TGI,786-0; read-out: pTGI (converted),0.55 µM
same,GI50,[15],0.229 µM
same,LC50,[15],> 100 µM
same,growth at 0.01 µM,[15]; read-out: Activity,99%
same,TGI,[15]; read-out: pTGI (converted),0.955 µM
